Experiment [1] concerns Propionibacterium acnes ATCC 11827. The experiment is described as follows: Disc diffusion method, zone of inhibition. Format: cell-based. From the text: Method: Disc diffusion method was done to study Minimum inhibitory concentration (MIC).
Materials • 1. Propionibacterium acnes ATCC 11827 • 2. Physiological saline or Buffered peptone water (BPW). • 3. Reinforced clostridium medium (RCM) Hi-media • 4. Reinforced clostridium agar (RCA) Hi-media • 5. Anaerobic chamber. • 6. Gassing manifold Nitrogen, mixed gases. • 7. Spectrophotometer (600 nm to 625 nm). • 8. Sterile Petri plates (150 mm×90 mm). • 9. Sterile micro pipettes and sterile micro tips. • 10. Sterile disc 6 mm. • 11. Samples tested: Resveratrol (Batch No.: C81173) and 3-Hydroxypsterostilbene (Batch No.: P80096)
The chamber used in the study is of COY LABORATORY USA model 8301-230, 3 ft polymer. The anaerobic chamber consists of a main chamber where in all the operations and incubation of the culture are carried out and a transfer chamber which is meant for taking the materials in and out of the equipment. The main chamber is provided with a heated fan box in order to maintain the required temperature (37° C.) and to circulate the air in the chamber. A catalyst stakpak is fixed to this fan box which consists of palladium catalyst, which is meant to convert oxygen to water molecules by reacting with hydrogen molecules. The anaerobic condition in the chamber for this is maintained by initialization with Nitrogen gas and then by the Mixture gas of N2+H2+CO2 in the proportion 80:10:10. Two gas tank arrangements have been done where only N2 is connected to the transfer chamber.
To carry out the antimicrobial activity of the products against P.acnes the organism was first cultured in the anaerobic conditions. Culture was inoculated into pre-sterile reinforced Clostridium medium (RCM) and incubated at anaerobic condition for 24 hrs. 24 hr to 48 hrs culture at Optical Density @625 nm was determined 0.632 (1:2 dilution) 4.0 Macfarland standards.
30 ml of sterilized RCM was poured into the pre-sterile Petri plates inside the chamber and allowed to solidify. The culture was inoculated (0.2 ml/plate) and spread evenly. After 30 minutes, antibacterial sterile discs (6 mm) were dispensed. […] 10 μl of the prepared sample and controls were dispensed onto the discs. The plates were incubated inside the anaerobic chamber at 37° C. for 24 to 48 hours duration.

The test system of experiment [2] is 3T3-L1 mouse adipocyte cells. The experiment is described as follows: Adipogenesis inhibitory assay (Oil Red-O staining). The format is cell-based. As to conditions: for IC50: Mus musculus, 3T3-L1, Oil Red-O, OD 492 nm, read-out: IC50, inhibition of adipogenesis; for Adipogenesis inhibitory potential relative to Resveratrol: times more effective / superior than resveratrol. As for the experimental part: A common assay to measure adipocyte differentiation in cell culture is with the dye Oil Red-O, which is a lipid-soluble red dye. Since terminal differentiation of adipocytes is accompanied by the accumulation of great amounts of lipids in large cytoplasmic vesicles, a strong, bright, staining of the cytoplasm with this dye is a reliable indicator of adipocyte differentiation.
3T3-L1 mouse adipocyte cells are seeded at a density of 5000 cell/200 μl of adipocyte induction medium in a 96 well plate. After 48 hrs varying concentrations of the sample are added. After 72 hrs, the medium is changed to adipocyte progression medium along with the sample. The medium is similarly changed after another 48 hours. The plates are washed gently after 48 hrs with 100 μl of PBS. 100 μl of 10% formalin is used to fix the cells for 30 min keeping at RT. The cells are then washed twice with 60% isopropanol gently. 100 μl of clear Oil red O stain is added to the wells & kept for staining for 1 hr. The cells are then washed with 70% Ethanol twice, once with PBS and air dried. Then 100 μl of 4% triton×100 in isopropanol is added to all the wells covered tightly & kept it in a shaker for 20 min at […]. The OD reading is taken at 492 nm in microplate reader.
The results are expressed as IC50 values using Graphpad prism software. The percentage of inhibition of adipogenesis is calculated as follows,
Where C-absorbance due to adipogenesis in untreated cells T-absorbance due to adipogenesis in sample treated cells
Note: IC50 is the concentration required for 50% inhibition of adipogenesis. Lower IC50 indicates better efficacy.

In a further experiment the target is T1, SIRT1 polypeptide (Homo sapiens, UniProt Q96EB6).
T1 construct: purchased Cayman Chemical Company 10010401
T1 sequence (Q96EB6 1-747): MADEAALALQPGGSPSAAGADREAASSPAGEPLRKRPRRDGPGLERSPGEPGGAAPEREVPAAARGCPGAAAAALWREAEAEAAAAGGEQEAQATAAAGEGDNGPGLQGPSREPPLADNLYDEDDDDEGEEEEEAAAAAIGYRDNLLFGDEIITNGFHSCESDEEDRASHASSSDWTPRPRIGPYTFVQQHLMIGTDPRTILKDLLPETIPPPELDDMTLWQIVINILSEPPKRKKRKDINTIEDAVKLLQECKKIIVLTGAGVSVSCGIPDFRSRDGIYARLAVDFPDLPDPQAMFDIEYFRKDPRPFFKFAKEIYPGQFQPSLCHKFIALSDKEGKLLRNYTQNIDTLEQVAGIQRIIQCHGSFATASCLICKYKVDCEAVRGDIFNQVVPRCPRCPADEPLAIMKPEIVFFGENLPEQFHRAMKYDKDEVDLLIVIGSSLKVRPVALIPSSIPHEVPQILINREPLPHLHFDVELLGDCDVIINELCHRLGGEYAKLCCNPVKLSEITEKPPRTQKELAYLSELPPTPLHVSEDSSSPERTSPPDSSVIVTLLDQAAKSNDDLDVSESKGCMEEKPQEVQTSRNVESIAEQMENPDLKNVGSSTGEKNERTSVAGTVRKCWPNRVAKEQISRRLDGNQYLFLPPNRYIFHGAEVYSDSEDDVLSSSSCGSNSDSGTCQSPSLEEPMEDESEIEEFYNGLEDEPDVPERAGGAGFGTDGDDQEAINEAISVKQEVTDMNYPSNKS
The experiment is described as follows: SIRT 1 Direct fluorescent Screening Assay kit (Cayman). Format: biochemical. As to conditions: read-out: Percentage SIRT 1 modulation; for activation at 1 µg/mL: 1 μg/ml; for activation at 10 µg/mL: 10 μg/ml. As for the experimental part:
SIRT-1 activation/inhibition was measured using the SIRT 1 Direct fluorescent Screening Assay kit (Catalog No. 10010401) and instructions provided therein of Cayman Chemical Company, 1180 East Ellsworth Road, Ann Arbor, Mich. 48108 USA. (http://www.caymanchem.com/pdfs/10010401.pdf)

Setting [3] is: sample 5.0 % (w/v) in DMSO, 10 μl per 6 mm disc.

SMILES strings stand for the structures.

Consider `COc1cc(/C=C/c2ccc(O)c(O)c2)cc(OC)c1` [3-hydroxypterostilbene], for which the Zone of inhibition entry in experiment [1] (sample 0.078 % (w/v) in DMSO) is on record as “No zone”; in experiment [1] (sample 0.156 % (w/v) in DMSO), “No zone”; in experiment [1] (sample 0.31 % (w/v) in DMSO (3.12 mg/ml), listed as 3-Hydroxy Pterostilbene) it was 10.0 mm; in experiment [1] (sample 0.31 % (w/v) in DMSO (3.12 mg/ml), listed as 3-Hydroxy pterostilbene), 10 mm; in experiment [1] (sample 0.625 % (w/v) in DMSO) it was 13.0 mm; in experiment [1] (sample 1.25 % (w/v) in DMSO), 15.0 mm. The Zone of inhibition in experiment [1] (sample 2.5 % (w/v) in DMSO) stood at 17.0 mm; in experiment [1] (setting [3]) it was 18.0 mm. Also, in experiment [2], the IC50 – broadly, the concentration that inhibits the measured activity by half – was 0.00483 µM. Also, the “Adipogenesis inhibitory potential relative to Resveratrol” value in experiment [2] is “about 5000 times”; in experiment [2] (listed as 3,5-dimethoxy-3,4′-dihydroxystilbene), 5000 times. Further, the activation at 1 µg/mL at SIRT1 polypeptide was found to be 224%. The activation at 10 µg/mL at SIRT1 polypeptide came out at 669%.
With `Oc1ccc(/C=C/c2cc(O)cc(O)c2)cc1` [Resveratrol, 3,4′,5-trihydroxy-trans-stilbene], the “Concentration required to produce a zone of inhibition of 10 mm” value in experiment [1] (disc diffusion, 0.625% w/v) worked out at 6.25 mg/mL. Further, the Zone of inhibition result is reported as “No zone” in experiment [1] (sample 0.078 % (w/v) in DMSO); “No zone” in experiment [1] (sample 0.156 % (w/v) in DMSO); “No zone” in experiment [1] (sample 0.31 % (w/v) in DMSO (3.12 mg/ml)); 10.0 mm in experiment [1] (sample 0.625 % (w/v) in DMSO); 12.0 mm in experiment [1] (sample 1.25 % (w/v) in DMSO); 13.0 mm in experiment [1] (sample 2.5 % (w/v) in DMSO). The Zone of inhibition in experiment [1] (setting [3]) was found to be 13.0 mm. Also, the IC50 in experiment [2] was 25 µM. Further, the activation at 1 µg/mL on SIRT1 polypeptide was 138%. Moreover, on SIRT1 polypeptide, the activation at 10 µg/mL is 291%.

Values taken from patent US20100204340A1 (priority 2009, published 2010).
